Results from article PMC11847841, “The development and evaluation of a tublysine-based antibody-drug conjugate with enhanced tumor therapeutic efficacy” (Frontiers in Pharmacology, 2025).
Where two headings read alike, the source gives them in different places.

How the values were obtained:
[1] = Single-dose pharmacokinetic study in cynomolgus monkey
tumor cells = assay: In vitro cytotoxicity of Tub114 and Tub114-cys; format: cell-based; details: at the same concentration as the corresponding ADC; Supplementary Figure S2
Procedure: EC50 values were calculated using the built-in software.

[2] = system: BT-474 human breast cancer xenografts; assay: BT-474 xenograft efficacy study; format: in vivo, BALB/c nude mice; details: BT-474 model, administered alone
[3] = system: HER2-negative cell line MDA-MB-468; assay: In vitro inhibition of proliferation of HER2-negative cells (EZMTT); format: cell-based, human; details: at high concentrations
[4] = system: HER2-positive BT-474 cells; assay: In vitro endocytosis into BT-474 cells; format: cell-based, human
Procedure: (§1) BT-474 and SK-BR-3 cells were cultured to the exponential growth phase, harvested, and washed with pre-cooled PBS. […] Alexa Fluor 488-conjugated goat anti-human IgG (H + L) secondary antibody (10 μg/mL; Invitrogen, Shanghai, China) was subsequently added, and the cells were incubated on ice for 30 min. After additional washes, the cells were resuspended in pre-cooled PBS, divided into five aliquots, and incubated at 37°C for 0, 10, 30, 90, or 120 min. At each time point, cells were further split into two sub-aliquots: one treated with Trypan Blue to quench extracellular fluorescence and the other with PBS as an unquenched control. Fluorescence intensity was measured using a flow cytometer (Guava, Merck Millipore). The percentage of endocytosis was calculated as the ratio of quenched to unquenched fluorescence multiplied by 100%.

[5] = system: HER2-positive SK-BR-3 cells; assay: In vitro endocytosis into SK-BR-3 cells; format: cell-based, human
Procedure: as §1

[6] = cited from earlier work; for Cmax of free payload: ref Poon et al., 2013
[7] = exceeds total body water content in rats; ref Pharmaceuticals and Medical Devices Agency, 2013; cited from earlier work
[8] = Tub114-cys alone 1 mg/kg single administration
[9] = free Tub114-cys in plasma after DX126-262 3 mg/kg single i.v.
[10] = free Tub114-cys in plasma after DX126-262 10 mg/kg single i.v.
[11] = free Tub114-cys in plasma after DX126-262 30 mg/kg single i.v.

CCC(C)C(NC(=O)C(C)(C)N(C)C)C(=O)N(C)C(CC(OC(C)=O)c1nc(C(=O)NC(Cc2ccc(O)c(NC(=O)CCCNC(=O)C(CCCCNC(=O)COCCOCCOCCOCCOCCOCCOCCOCCOCCOC)NC(=O)CCCN3C(=O)CC(SCC(N)C(=O)O)C3=O)c2)CC(C)C(=O)O)cs1)C(C)C (centres unmarked) [Tub114-cys]
Cmax of free payload ([1]; Tub114-cys after 3 mg/kg DX126-262): 5.5 nM
Cmax of free payload ([1]; Tub114-cys after 10 mg/kg DX126-262): 14.6 nM
Cmax of free payload ([1]; Tub114-cys after 30 mg/kg DX126-262): 31.7 nM
AUCinf [1, 8]: 4,501.5 ± 657.9 ng•hr/mL
CL [1, 8]: 3.772 ± 0.578 mL/min/kg
Cmax [1, 8]: 4,155.8 ± 464.2 ng/mL
T1/2 [1, 8]: 1.2 ± 0.2 h
Vss [1, 8]: 0.2538 ± 0.0307 L/kg
AUC inf [1, 9]: 519.2 ± 381.9 ng·h/mL
Cmax [1, 9]: 9.5 ± 1.1 ng/mL
T1/2 [1, 9]: 51.4 ± 47.1 h
AUC inf [1, 10]: 966.4 ± 115.4 ng·h/mL
Cmax [1, 10]: 25.0 ± 5.2 ng/mL
T1/2 [1, 10]: 26.6 ± 6.6 h
AUC inf [1, 11]: 2,505.7 ± 419.6 ng•hr/mL
Cmax [1, 11]: 54.3 ± 5.7 ng/mL
T1/2 [1, 11]: 28.1 ± 2.7 h
Killing of tumor cells by free payload (tumor cells): neither Tub114 nor Tub114-cys could kill tumor cells at the same concentration as the corresponding ADC
Antitumor effect [2]: no antitumor effect

ado-trastuzumab emtansine [Kadcyla]
Toxicity to HER2-negative cell line MDA-MB-468 [3]: some inhibitory effects
Endocytosis Efficiency ([4]; BT-474, incubation time 0 min): 10.8%
Endocytosis Efficiency ([4]; BT-474, incubation time 10 min): 27.3%
Endocytosis Efficiency ([4]; BT-474, incubation time 30 min): 34.2%
Endocytosis Efficiency ([4]; BT-474, incubation time 90 min): 38.6%
Endocytosis Efficiency ([4]; BT-474, incubation time 120 min): 43.8%
Endocytosis Efficiency ([5]; SK-BR-3, incubation time 0 min): 9.3%
Endocytosis Efficiency ([5]; SK-BR-3, incubation time 10 min): 11.8%
Endocytosis Efficiency ([5]; SK-BR-3, incubation time 30 min): 17.4%
Endocytosis Efficiency ([5]; SK-BR-3, incubation time 90 min): 31.6%
Endocytosis Efficiency ([5]; SK-BR-3, incubation time 120 min): 33.4%

COc1cc2cc(c1Cl)N(C)C(=O)C[C@H](OC(=O)[C@H](C)N(C)C(=O)CCS)[C@]1(C)O[C@H]1[C@H](C)[C@@H]1C[C@@](O)(NC(=O)O1)[C@H](OC)/C=C/C=C(\C)C2 [DM1]
Cmax of free payload ([6]; DM1 after 3 mg/kg Kadcyla): 8.0 nM
Cmax of free payload ([6]; DM1 after 10 mg/kg Kadcyla): 28.2 nM
Cmax of free payload ([6]; DM1 after 30 mg/kg Kadcyla): 90.2 nM
Vss [7]: > 0.668 L/kg

CC[C@@]1(O)C(=O)OCc2c1cc1n(c2=O)Cc2c-1nc1cc(F)c(C)c3c1c2[C@@H](NC(=O)CO)CC3 [Dxd]
Vss ([6]; Dxd 1 mg/kg, ref Nagai et al., 2019): 0.832 L/kg
